Data set [1] concerns P. aeruginosa MB9799 (efflux-, IMP-1 plasmid). The data set is classed as cell-based, Pseudomonas aeruginosa. To be noted: efflux − (MB9799) strain; imipenem at 2 μg/mL; in the presence of a class A, C, D serine β-lactamase inhibitor closely related to relebactam. A digest of the protocol:
(§1)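 Isogenic P. aeruginosa PAO1 strains (efflux+ and multiple-efflux-pump-disrupted) carrying plasmid IMP-1, with inducible AmpC, tested by broth microdilution. Imipenem and/or ceftazidime fixed, usually at CLSI breakpoint, plus fixed class A/C β-lactamase inhibitor; titrated MBL inhibitor concentration restoring susceptibility recorded and compared between strains as efflux fold difference.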

For a further data set, the target named is NDM-1 (Klebsiella pneumoniae, UniProt C7C422). The experiment in a line: biochemical. The data set is classed as biochemical. The following applies: CCF2-FA fluorescence assay, 2 hours at 25° C. A digest of the protocol: (§2)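 Enzyme (NDM-1 1 pM, IMP-1 2 pM, VIM-1 30 pM final) and 1.25 μM CCF2-FA incubated with inhibitor (20 to 0.00063 μM) for 2 h at 25° C in 100 mM KH2PO4 pH 7, 0.005% Tween-20, 10 μM ZnSO4. Fluorescence read at ex 405/em 460 nm; IC50 by 4-parameter fit.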

In another data set the target is IMP-1 (Serratia marcescens, UniProt P52699). The experiment in a line: biochemical. To be noted: CCF2-FA fluorescence assay, 2 hours at 25° C.; read-out: IMP1 IC50. In outline:
as §2

A further data set concerns the target VIM-1 (Pseudomonas aeruginosa (strain ATCC 15692 / DSM 22644 / CIP 104116 / JCM 14847 / LMG 12228 / 1C / PRS 101 / PAO1), UniProt A0A0F7KYQ8). In words: biochemical. The following applies: CCF2-FA fluorescence assay, 2 hours at 25° C.; read-out: VIM1 IC50. In outline:
as §2

The next data set has as its target VIM-2 (Escherichia coli, UniProt Q5U7L7). The experiment in a line: biochemical. To be noted: CCF2-FA fluorescence assay; read-out: VIM2 IC50.
Data set [2] has as its system Serratia marcescens expressing IMP-1 (CL5741). The data set is classed as cell-based. To be noted: with imipenem 1 μg/ml; 95% inhibition of bacterial growth. In outline: (§3)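 Synergy with imipenem at a fixed 1 μg/ml was scored by absorbance following 22–24 h incubation at 35 °C; the potentiating concentration (MITC95) was the lowest giving 95% growth inhibition.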
Data set [3] relates to Escherichia coli expressing NDM-1 (CLB30016). The format is cell-based. The following applies: with imipenem 1 μg/ml; 95% inhibition of bacterial growth. In outline: as §3
Data set [4] deals with Klebsiella pneumoniae expressing VIM-1 (IHMA599644). The format is cell-based. To be noted: with imipenem 1 μg/ml; 95% inhibition of bacterial growth. A digest of the protocol: as §3
Data set [5] relates to P. aeruginosa MB9798 (efflux+, IMP-1 plasmid). To be noted: for MB9798 MITC95 P. aeruginosa uM Efflux WT: efflux + (MB9798) strain, imipenem at 2 μg/mL, in the presence of a class A, C, D serine β-lactamase inhibitor closely related to relebactam; for Efflux ratio: fold difference between efflux+ (MB9798) and efflux− (MB9799) strains. A digest of the protocol:
as §1

Sequence of NDM-1 (C7C422 whole entry, looked up, species assumed): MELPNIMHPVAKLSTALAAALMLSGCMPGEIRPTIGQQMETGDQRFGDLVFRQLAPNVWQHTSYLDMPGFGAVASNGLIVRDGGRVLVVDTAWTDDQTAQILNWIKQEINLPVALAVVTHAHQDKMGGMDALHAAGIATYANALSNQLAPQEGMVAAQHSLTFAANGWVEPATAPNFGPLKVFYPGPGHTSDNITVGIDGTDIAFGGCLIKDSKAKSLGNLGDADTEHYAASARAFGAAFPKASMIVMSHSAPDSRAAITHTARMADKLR
Sequence of IMP-1 (P52699 whole entry, looked up, species assumed): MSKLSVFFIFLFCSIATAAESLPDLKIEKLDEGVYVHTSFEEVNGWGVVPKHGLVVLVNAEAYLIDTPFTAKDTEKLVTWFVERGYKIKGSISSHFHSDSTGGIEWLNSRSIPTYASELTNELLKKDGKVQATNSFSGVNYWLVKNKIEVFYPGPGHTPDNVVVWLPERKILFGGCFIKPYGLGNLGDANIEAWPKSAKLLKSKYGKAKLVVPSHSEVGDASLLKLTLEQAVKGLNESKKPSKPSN

As a reminder, the IC50 is the concentration needed to halve the response being measured. As for `NC[C@@H](O)CNS(=O)(=O)c1ccc(N2CCC[C@H](CN)C2)c(-c2nnn[nH]2)c1S(N)(=O)=O` [Example 39, N1-((R)-3-amino-2-hydroxypropyl)-4-((R)-3-(aminomethyl)piperidin-1-yl)-3-(1H-tetrazol-5-yl)benzene-1,2-disulfonamide], the “MB9799 MITC95 P. aeruginosa uM Efflux Mutant” value in [1] amounted to 1.56 µM. Besides, the IC50 against NDM-1 was determined as 50.4 nM; on IMP-1 it was 44.6 nM; at VIM-1, 1.71 nM; at VIM-2, 11.6 nM. In addition, the “CL5741 S. marcescens MITC95 IMP” value in data set [2] turned out to be 0.78 µM. For the same molecule, the “CLB30016 E. coli MITC95 NDM” value in [3] is 1.56 µM. Further, the “IHMA599644 K. pneumoniae MITC95 VIM” value in data set [4] turned out to be 1.56 µM. In data set [5], the “MB9798 MITC95 P. aeruginosa uM Efflux WT” value is 3.13 µM. Moreover, the Efflux ratio in data set [5] turned out to be 2.00.
For `NC[C@@H](O)CNS(=O)(=O)c1ccc(N2CCN(CCCO)CC2)c(-c2nnn[nH]2)c1S(N)(=O)=O` [Example 40, (R)-N1-(3-amino-2-hydroxypropyl)-4-(4-(3-hydroxypropyl)piperazin-1-yl)-3-(1H-tetrazol-5-yl)benzene-1,2-disulfonamide], the “MB9799 MITC95 P. aeruginosa uM Efflux Mutant” value in data set [1] turned out to be 0.78 µM. In addition, the IC50 on NDM-1 was 3.07 nM; at IMP-1, 3.56 nM; on VIM-1, 5.87 nM; at VIM-2 it was 7.36 nM. The “CL5741 S. marcescens MITC95 IMP” value in data set [2] turned out to be 0.10 µM. Besides, the “CLB30016 E. coli MITC95 NDM” value in data set [3] stood at 0.05 µM. Besides, the “IHMA599644 K. pneumoniae MITC95 VIM” value in [4] amounted to 0.78 µM. The “MB9798 MITC95 P. aeruginosa uM Efflux WT” value in data set [5] was determined as 1.56 µM. Also, the Efflux ratio in data set [5] is on record as 2.00.
Take `NCCNS(=O)(=O)c1ccc(N2CCN(CCCO)CC2)c(-c2nnn[nH]2)c1S(N)(=O)=O` [Example 41, N1-(2-aminoethyl)-4-(4-(3-hydroxypropyl)piperazin-1-yl)-3-(1H-tetrazol-5-yl)benzene-1,2-disulfonamide]: in [1], the “MB9799 MITC95 P. aeruginosa uM Efflux Mutant” value turned out to be 0.39 µM. Also, the IC50 against NDM-1 stood at 5.98 nM; on IMP-1, 6.04 nM; at VIM-1, 11.5 nM; on VIM-2, 14.8 nM. Also, the “CL5741 S. marcescens MITC95 IMP” value in data set [2] was 0.10 µM. Further, the “CLB30016 E. coli MITC95 NDM” value in [3] stood at 0.10 µM. For the same molecule, the “IHMA599644 K. pneumoniae MITC95 VIM” value in [4] is 1.56 µM. Besides, the “MB9798 MITC95 P. aeruginosa uM Efflux WT” value in [5] was found to be 1.56 µM. Further, the Efflux ratio in data set [5] stood at 4.00.
As for `NC[C@@H](O)CNS(=O)(=O)c1ccc(N2CCC(CO)CC2)c(-c2nnn[nH]2)c1S(N)(=O)=O` [Example 42, (R)-N1-(3-amino-2-hydroxypropyl)-4-(4-(hydroxymethyl)piperidin-1-yl)-3-(1H-tetrazol-5-yl)benzene-1,2-disulfonamide], in [1], the “MB9799 MITC95 P. aeruginosa uM Efflux Mutant” value came out at 1.56 µM. The IC50 on NDM-1 was 0.45 nM; at IMP-1, 0.47 nM; on VIM-1 it was 0.16 nM; at VIM-2, 0.71 nM. In addition, the “CL5741 S. marcescens MITC95 IMP” value in data set [2] turned out to be 3.13 µM. Also, the “CLB30016 E. coli MITC95 NDM” value in [3] was 3.13 µM. Besides, the “IHMA599644 K. pneumoniae MITC95 VIM” value in data set [4] stood at 6.25 µM. Besides, the “MB9798 MITC95 P. aeruginosa uM Efflux WT” value in data set [5] worked out at 1.56 µM. In addition, the Efflux ratio in data set [5] worked out at 1.00.
Regarding `NCCNS(=O)(=O)c1ccc(N2CCC(CO)CC2)c(-c2nnn[nH]2)c1S(N)(=O)=O` [Example 43, N1-(2-aminoethyl)-4-(4-(hydroxymethyl)piperidin-1-yl)-3-(1H-tetrazol-5-yl)benzene-1,2-disulfonamide], the “MB9799 MITC95 P. aeruginosa uM Efflux Mutant” value in data set [1] was 1.56 µM. In addition, the IC50 turned out to be 0.51 nM on NDM-1, 0.58 nM on IMP-1, 0.19 nM on VIM-1 and 0.61 nM on VIM-2. For the same molecule, the “CL5741 S. marcescens MITC95 IMP” value in [2] was 1.56 µM. In [3], the “CLB30016 E. coli MITC95 NDM” value was found to be 1.56 µM. Further, the “IHMA599644 K. pneumoniae MITC95 VIM” value in data set [4] was 6.25 µM. Also, in data set [5], the “MB9798 MITC95 P. aeruginosa uM Efflux WT” value was found to be 1.56 µM. Besides, the Efflux ratio in [5] stood at 1.00.
In the case of `NC[C@H](N)CNS(=O)(=O)c1ccc(N2CCC(CO)CC2)c(-c2nnn[nH]2)c1S(N)(=O)=O` [Example 44, (S)-N1-(2,3-diaminopropyl)-4-(4-(hydroxymethyl)piperidin-1-yl)-3-(1H-tetrazol-5-yl)benzene-1,2-disulfonamide], in data set [1], the “MB9799 MITC95 P. aeruginosa uM Efflux Mutant” value came to 1.56 µM. Besides, the IC50 against NDM-1 amounted to 0.36 nM; at IMP-1, 0.56 nM; on VIM-1, 0.06 nM; at VIM-2, 0.63 nM. In addition, in data set [2], the “CL5741 S. marcescens MITC95 IMP” value was found to be 3.13 µM. Further, the “CLB30016 E. coli MITC95 NDM” value in [3] worked out at 3.13 µM. Moreover, the “IHMA599644 K. pneumoniae MITC95 VIM” value in data set [4] turned out to be 6.25 µM. The “MB9798 MITC95 P. aeruginosa uM Efflux WT” value in [5] turned out to be 3.13 µM. For the same molecule, in data set [5], the Efflux ratio was determined as 2.00.
On to `NCC(CN)NS(=O)(=O)c1ccc(N2CCC(CO)CC2)c(-c2nnn[nH]2)c1S(N)(=O)=O` [Example 45, N1-(1,3-diaminopropan-2-yl)-4-(4-(hydroxymethyl)piperidin-1-yl)-3-(1H-tetrazol-5-yl)benzene-1,2-disulfonamide], for which the “MB9799 MITC95 P. aeruginosa uM Efflux Mutant” value in [1] was 1.56 µM. For the same molecule, the IC50 is 0.27 nM on NDM-1, 0.52 nM at IMP-1, 0.23 nM on VIM-1 and 0.74 nM on VIM-2. Also, the “CL5741 S. marcescens MITC95 IMP” value in data set [2] turned out to be 3.13 µM. In addition, in [3], the “CLB30016 E. coli MITC95 NDM” value came out at 1.56 µM. The “IHMA599644 K. pneumoniae MITC95 VIM” value in [4] came out at 3.13 µM. Also, in [5], the “MB9798 MITC95 P. aeruginosa uM Efflux WT” value came out at 1.56 µM. Further, in data set [5], the Efflux ratio is 1.00.
`C[C@H](CN)NS(=O)(=O)c1ccc(N2CCC(CO)CC2)c(-c2nnn[nH]2)c1S(N)(=O)=O` [Example 46, (R)-N1-(1-aminopropan-2-yl)-4-(4-(hydroxymethyl)piperidin-1-yl)-3-(1H-tetrazol-5-yl)benzene-1,2-disulfonamide]: the “MB9799 MITC95 P. aeruginosa uM Efflux Mutant” value in data set [1] came out at 1.56 µM. In addition, the IC50 is 0.06 nM at NDM-1, 0.12 nM at IMP-1, 0.08 nM at VIM-1 and 0.32 nM on VIM-2. The “CL5741 S. marcescens MITC95 IMP” value in data set [2] turned out to be 1.56 µM. Also, the “CLB30016 E. coli MITC95 NDM” value in [3] stood at 3.13 µM. Besides, the “IHMA599644 K. pneumoniae MITC95 VIM” value in data set [4] turned out to be 6.25 µM. In addition, the “MB9798 MITC95 P. aeruginosa uM Efflux WT” value in data set [5] turned out to be 1.56 µM. For the same molecule, the Efflux ratio in data set [5] was 1.00.
Regarding `NC[C@@H](O)CNS(=O)(=O)c1ccc(N2CCN(CCO)CC2)c(-c2nnn[nH]2)c1S(N)(=O)=O` [Example 47, (R)-N1-(3-amino-2-hydroxypropyl)-4-(4-(2-hydroxyethyl)piper-azin-1-yl)-3-(1H-tetrazol-5-yl)benzene-1,2-disulfonamide], the “MB9799 MITC95 P. aeruginosa uM Efflux Mutant” value in data set [1] came to 0.78 µM. Also, the IC50 was 3.94 nM against NDM-1, 4.57 nM on IMP-1, 5.02 nM on VIM-1 and 7.34 nM on VIM-2. In addition, the “CL5741 S. marcescens MITC95 IMP” value in data set [2] amounted to 0.10 µM. Moreover, the “CLB30016 E. coli MITC95 NDM” value in [3] came to 0.10 µM. In addition, in [4], the “IHMA599644 K. pneumoniae MITC95 VIM” value came out at 0.78 µM. Moreover, the “MB9798 MITC95 P. aeruginosa uM Efflux WT” value in data set [5] was found to be 1.56 µM. Also, the Efflux ratio in data set [5] is 2.00.
As for `NCCNS(=O)(=O)c1ccc(N2CCN(CCO)CC2)c(-c2nnn[nH]2)c1S(N)(=O)=O` [Example 48, N1-(2-aminoethyl)-4-(4-(2-hydroxyethyl)piper-azin-1-yl)-3-(1H-tetrazol-5-yl)benzene-1,2-disulfonamide], the “MB9799 MITC95 P. aeruginosa uM Efflux Mutant” value in [1] amounted to 0.39 µM. The IC50 is 1.52 nM at NDM-1, 5.59 nM at IMP-1, 7.23 nM at VIM-1 and 15 nM on VIM-2. Besides, the “CL5741 S. marcescens MITC95 IMP” value in data set [2] came out at 0.05 µM. The “CLB30016 E. coli MITC95 NDM” value in [3] is 0.05 µM. The “IHMA599644 K. pneumoniae MITC95 VIM” value in [4] was determined as 0.39 µM. Also, the “MB9798 MITC95 P. aeruginosa uM Efflux WT” value in [5] was found to be 1.56 µM. The Efflux ratio in [5] stood at 4.00.

The values are drawn from patent publication US11207312B2, “Metallo-beta-lactamase inhibitors and methods of use thereof” (priority 2017, dated 2021).
